{"source": "paper PMC2323111", "about": "“Intervening with Urinary Tract Infections Using Anti-Adhesives Based on the Crystal Structure of the FimH–Oligomannose-3 Complex” (PLoS ONE, 2008)", "key": {"[1]": {"biological_target": "T1, FimH (Escherichia coli, UniProt P08191)", "experiment": "SPR, competition in solution with immobilized Fab 1C10", "assay_type": "binding"}, "[2]": {"biological_target": "T1, FimH", "experiment": "inhibition of FimH-dependent bacterial adhesion to […] bladder cells, fimH-negative control", "assay_type": "cell-based", "set-up": "J96 FimH expressed from plasmid pMMB66 on type 1 pili of AAEC185(pUT2002) E. coli"}, "[3]": {"biological_target": "T1, FimH", "experiment": "co-crystal structure, […] Å", "assay_type": "binding"}}, "note": "pKd: −log10 of the molar value. Read-outs that look alike come from different tables or passages of the source."}
{"smiles": "OC[C@H]1O[C@H](O[C@H]2[C@H](O)[C@@H](CO)OC(O)[C@H]2O)[C@@H](O)[C@@H](O)[C@@H]1O", "note": "(mixture of isomers) [Manα1,3Man]", "values": [{"measurement": "pKd", "setting": "[1]", "result": 6.55}]}
{"smiles": "CCCCCCCO[C@H]1O[C@H](CO)[C@@H](O)[C@H](O)[C@@H]1O", "note": "[HM, heptyl α-D-mannose]", "values": [{"measurement": "inhibition of FimH-dependent bacterial adhesion to 5637 bladder cells, fimH-nega", "setting": "[2]", "result": "HM is more efficient at reducing FimH-mediated bacterial adherence, in accordance with its higher affinity for FimH"}]}
{"smiles": "CO[C@@H]1O[C@H](CO)[C@@H](O)[C@H](O[C@H]2O[C@H](CO)[C@@H](O)[C@H](O)[C@@H]2O)[C@@H]1O", "note": "[Manα1,3ManβOMe]", "values": [{"measurement": "pKd", "setting": "[1]; read-out: Kd", "result": 6.95}]}
{"smiles": "CC(=O)N[C@H]1[C@H](O[C@H]2[C@H](O)[C@@H](NC(C)=O)C(O)O[C@@H]2CO)O[C@H](CO)[C@@H](O[C@@H]2O[C@H](CO[C@H]3O[C@H](CO)[C@@H](O)[C@H](O)[C@@H]3O)[C@@H](O)[C@H](O[C@H]3O[C@H](CO)[C@@H](O)[C@H](O)[C@@H]3O)[C@@H]2O)[C@@H]1O", "note": "(stereo partly shown) [oligomannose-3]", "values": [{"measurement": "co-crystal structure, 2.1 Å", "setting": "[3]", "result": "Oligomannose-3 has been crystallized in complex with the FimH RBD."}]}
